Experimental findings from patent US20140113898A1, “BISARYLSULFONE AND DIALKYLARYLSULFONE COMPOUNDS AS CALCIUM CHANNEL BLOCKERS” (Zalicus Pharmaceuticals Ltd., priority 2010, published 2014) are described below.

In one assay the target is T1, CaV2.2 (Homo sapiens, UniProt Q00975).
T1 construct: expressed in transfected cells; host or cells: unnamed doxycycline-inducible cell line
T1 sequence (Q00975 whole entry): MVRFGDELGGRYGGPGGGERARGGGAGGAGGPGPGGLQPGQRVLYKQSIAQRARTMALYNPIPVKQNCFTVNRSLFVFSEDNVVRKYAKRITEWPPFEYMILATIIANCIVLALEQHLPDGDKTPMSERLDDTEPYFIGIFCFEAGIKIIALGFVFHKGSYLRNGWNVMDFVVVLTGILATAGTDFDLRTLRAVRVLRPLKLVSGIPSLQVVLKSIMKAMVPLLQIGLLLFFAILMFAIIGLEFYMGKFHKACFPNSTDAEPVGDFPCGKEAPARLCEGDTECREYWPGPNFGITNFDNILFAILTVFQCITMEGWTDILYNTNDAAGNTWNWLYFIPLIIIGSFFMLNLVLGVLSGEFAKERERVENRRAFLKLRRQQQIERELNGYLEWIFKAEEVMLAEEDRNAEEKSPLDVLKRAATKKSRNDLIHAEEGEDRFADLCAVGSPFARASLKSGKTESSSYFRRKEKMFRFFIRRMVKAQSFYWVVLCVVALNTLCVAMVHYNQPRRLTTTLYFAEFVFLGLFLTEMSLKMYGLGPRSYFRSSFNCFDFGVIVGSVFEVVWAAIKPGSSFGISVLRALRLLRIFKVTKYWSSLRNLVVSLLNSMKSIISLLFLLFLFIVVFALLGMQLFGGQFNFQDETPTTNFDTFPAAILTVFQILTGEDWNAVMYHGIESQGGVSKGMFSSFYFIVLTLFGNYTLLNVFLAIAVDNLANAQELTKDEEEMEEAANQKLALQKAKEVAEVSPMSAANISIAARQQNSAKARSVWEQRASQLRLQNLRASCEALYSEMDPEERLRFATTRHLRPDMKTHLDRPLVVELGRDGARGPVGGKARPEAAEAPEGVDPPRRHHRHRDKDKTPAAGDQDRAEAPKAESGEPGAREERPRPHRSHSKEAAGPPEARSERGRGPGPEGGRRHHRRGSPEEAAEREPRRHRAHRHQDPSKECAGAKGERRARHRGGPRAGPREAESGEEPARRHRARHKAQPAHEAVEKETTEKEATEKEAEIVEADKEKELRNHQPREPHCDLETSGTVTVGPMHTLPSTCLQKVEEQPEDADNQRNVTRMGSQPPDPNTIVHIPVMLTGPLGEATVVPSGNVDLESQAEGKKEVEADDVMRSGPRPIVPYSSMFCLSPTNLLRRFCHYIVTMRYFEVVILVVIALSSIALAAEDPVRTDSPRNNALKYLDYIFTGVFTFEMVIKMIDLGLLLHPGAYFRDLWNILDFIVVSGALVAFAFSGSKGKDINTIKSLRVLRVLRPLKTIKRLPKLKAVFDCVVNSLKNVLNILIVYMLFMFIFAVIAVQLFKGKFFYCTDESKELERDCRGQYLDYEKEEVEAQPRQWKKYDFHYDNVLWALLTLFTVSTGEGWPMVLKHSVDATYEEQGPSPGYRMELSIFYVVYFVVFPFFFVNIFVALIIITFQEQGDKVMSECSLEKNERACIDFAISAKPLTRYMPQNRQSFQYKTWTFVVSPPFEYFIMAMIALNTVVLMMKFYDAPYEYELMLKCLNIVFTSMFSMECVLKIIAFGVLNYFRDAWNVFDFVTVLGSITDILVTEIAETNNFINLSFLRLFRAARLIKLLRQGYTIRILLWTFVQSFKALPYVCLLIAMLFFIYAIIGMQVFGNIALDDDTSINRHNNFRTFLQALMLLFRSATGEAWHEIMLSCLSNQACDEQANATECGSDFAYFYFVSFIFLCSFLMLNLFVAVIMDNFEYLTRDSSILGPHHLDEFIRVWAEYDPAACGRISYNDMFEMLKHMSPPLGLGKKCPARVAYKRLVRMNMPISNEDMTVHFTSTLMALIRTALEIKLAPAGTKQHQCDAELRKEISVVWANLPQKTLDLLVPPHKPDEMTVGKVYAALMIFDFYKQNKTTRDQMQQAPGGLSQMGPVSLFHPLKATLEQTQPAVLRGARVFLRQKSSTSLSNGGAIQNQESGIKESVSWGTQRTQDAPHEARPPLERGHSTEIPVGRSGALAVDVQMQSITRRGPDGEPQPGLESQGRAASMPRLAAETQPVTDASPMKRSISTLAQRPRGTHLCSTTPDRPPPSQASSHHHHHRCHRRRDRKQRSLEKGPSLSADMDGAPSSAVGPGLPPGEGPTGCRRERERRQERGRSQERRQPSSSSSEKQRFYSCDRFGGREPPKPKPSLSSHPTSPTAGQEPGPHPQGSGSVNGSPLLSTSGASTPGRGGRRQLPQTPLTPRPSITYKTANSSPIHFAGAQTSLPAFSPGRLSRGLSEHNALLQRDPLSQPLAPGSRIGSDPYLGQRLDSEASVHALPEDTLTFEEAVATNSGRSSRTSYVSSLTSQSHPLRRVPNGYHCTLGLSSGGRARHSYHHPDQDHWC
T1 sequence (P54284 whole entry partner): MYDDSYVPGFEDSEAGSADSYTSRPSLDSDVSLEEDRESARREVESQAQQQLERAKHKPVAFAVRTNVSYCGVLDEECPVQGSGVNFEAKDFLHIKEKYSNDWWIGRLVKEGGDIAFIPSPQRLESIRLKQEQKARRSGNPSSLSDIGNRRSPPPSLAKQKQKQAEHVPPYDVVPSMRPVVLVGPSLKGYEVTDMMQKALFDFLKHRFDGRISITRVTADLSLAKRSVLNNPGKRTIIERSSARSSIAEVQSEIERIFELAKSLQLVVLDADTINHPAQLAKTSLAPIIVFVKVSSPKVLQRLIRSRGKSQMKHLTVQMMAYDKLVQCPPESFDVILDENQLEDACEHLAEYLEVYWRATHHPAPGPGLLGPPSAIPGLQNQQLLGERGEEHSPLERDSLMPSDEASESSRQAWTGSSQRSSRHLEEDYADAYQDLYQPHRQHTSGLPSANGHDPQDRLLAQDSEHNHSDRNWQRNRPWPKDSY
T1 sequence (P54289 25-946 partner limits assumed): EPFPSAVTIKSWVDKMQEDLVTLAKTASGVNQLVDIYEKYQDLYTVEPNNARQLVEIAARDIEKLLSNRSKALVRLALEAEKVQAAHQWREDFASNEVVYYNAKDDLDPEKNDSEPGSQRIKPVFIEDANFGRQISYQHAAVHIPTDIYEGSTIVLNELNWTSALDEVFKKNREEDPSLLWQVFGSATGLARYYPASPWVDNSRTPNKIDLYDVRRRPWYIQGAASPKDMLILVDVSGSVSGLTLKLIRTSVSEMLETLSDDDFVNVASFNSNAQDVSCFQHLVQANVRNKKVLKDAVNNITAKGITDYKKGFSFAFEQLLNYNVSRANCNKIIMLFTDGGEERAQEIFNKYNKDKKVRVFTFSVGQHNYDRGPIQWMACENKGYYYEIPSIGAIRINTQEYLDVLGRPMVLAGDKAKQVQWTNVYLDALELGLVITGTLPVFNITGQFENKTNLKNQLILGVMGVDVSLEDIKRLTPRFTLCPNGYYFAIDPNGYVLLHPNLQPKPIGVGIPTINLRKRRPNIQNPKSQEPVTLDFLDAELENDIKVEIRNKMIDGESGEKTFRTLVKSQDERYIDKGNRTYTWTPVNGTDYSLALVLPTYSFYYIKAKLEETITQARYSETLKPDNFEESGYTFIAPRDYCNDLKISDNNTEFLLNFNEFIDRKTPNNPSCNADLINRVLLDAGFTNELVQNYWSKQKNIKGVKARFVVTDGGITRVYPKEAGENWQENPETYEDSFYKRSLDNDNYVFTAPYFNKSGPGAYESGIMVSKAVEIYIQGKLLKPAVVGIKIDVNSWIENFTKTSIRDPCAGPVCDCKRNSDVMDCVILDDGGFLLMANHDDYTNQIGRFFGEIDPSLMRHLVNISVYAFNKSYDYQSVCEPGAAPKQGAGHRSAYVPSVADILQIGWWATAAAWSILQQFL
T1 sequence (P54289 947-1103 partner limits assumed): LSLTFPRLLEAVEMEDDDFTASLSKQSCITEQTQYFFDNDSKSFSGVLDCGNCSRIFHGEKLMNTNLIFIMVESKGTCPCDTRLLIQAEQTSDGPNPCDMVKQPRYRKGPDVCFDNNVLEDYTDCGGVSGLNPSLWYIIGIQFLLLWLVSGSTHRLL
As to the kind of experiment: High-throughput CaV2.2/Kir2.3 FLIPR fluorescent assay. The format is cell-based. Conditions: FLIPR data CaV2.2 (nM), Table 5; Fluo-4 FLIPR; closed or inactivated state not stated. As to the method: Cells were plated in 384-well, clear-bottom, black-walled, poly-D-lysine coated plates (Becton Dickinson, Franklin Lake, N.J.) 2 days prior to use in the FLIPR assay. 100 μL of cells (1.4×10^6 cell/mL) containing doxycyline (Sigma-Aldrich, 1.5 μg/mL; to induce channel expression) were added to each well using a Multidrop (Thermo Scientific, Waltham, Mass.) and were maintained in 5% CO2 incubator at 37° C. On the morning of the assay, cells were transferred to a 5% CO2 incubator at 29° C.
Cells were washed with a wash buffer containing (in mM): 118 NaCl, 18.4 HEPES, 11.7 D-glucose, 2 CaCl2, 0.5 MgSO4, 4.7 KCl, 1.2 KH2PO4, pH adjusted to 7.2 with NaOH. 4.4 μM of the fluorescent indicator dye, Fluo-4 (Invitrogen), prepared in pluronic acid (Sigma-Aldrich), was loaded into the wells and incubated for 45 minutes at 29° C. in 5% CO2. Cells were then rinsed with either a 2 mM KCl closed-state buffer (in mM: 138.5 NaCl, 10 HEPES, 10 D-glucose, 1 CaCl2, and 2 KCl, with the pH adjusted to 7.4 with NaOH) when performing the closed-state assay or 12.5 mM KCl inactivated-state buffer (in mM: 128 NaCl, 10 HEPES, 10 D-glucose, 1 CaCl2, and 12.5 mM KCl, with the pH adjusted to 7.4 with NaOH) when performing the inactivated-state assay.
Calcium entry was evoked with an addition of 130 mM KCl stimulation buffer (in mM: 10.5 NaCl, 10 HEPES, 10 D-glucose, 1 CaCl2, and 130 KCl, with the pH adjusted to 7.4 with NaOH) for both the closed-state or inactivated-state assay. A change in the Fluo-4 fluorescence signal was assessed using FLIPR^TETRA™ instrument (Molecular Devices, Sunnyvale, Calif.) for 3 minutes following the elevation of extracellular KCl using an illumination wavelength of 470-495 nm with emissions recorded at 515-575 nm.
Concentration-dependent response curves were obtained by comparing the fluorescence signal in the presence of compound and fitted with a logistic function (1) to obtain the concentration that inhibited 50% (IC50) of the RLU signal using OriginPro v.7.5 software (OriginLab, Northampton, Mass.).
To assess the quality of the FLIPR assays the Z-factor (2) was used to quantify the suitability of the assay conditions using the following equation: […]
Data are expressed as mean and standard deviation (SD).
As to `CC(C)(C(=O)NCCC(F)(F)F)S(=O)(=O)c1cccc(C(F)(F)F)c1` [Compound 125, 2-methyl-2-((3-(trifluoromethyl)phenyl)sulfonyl)-N-(3,3,3-trifluoropropyl)propanamide], the IC50 was 10000 nM.

The same assay, now with this note: Table 4; Fluo-4 FLIPR; closed or inactivated state not stated; read-out: FLIPR data CaV2.2.
Take `O=C(NCc1ccc(S(=O)(=O)c2cccc(C(F)(F)F)c2)cc1)[C@@H]1C[C@@H](O)CN1` [Compound 74, (2S,4R)-4-hydroxy-N-(4-((3-(trifluoromethyl)phenyl)sulfonyl)benzyl)pyrrolidine-2-carboxamide]: the IC50 is 2360 nM.

With `CO[C@H]1CN[C@@H](C(=O)NCc2ccc(S(=O)(=O)c3cccc(C(F)(F)F)c3)cc2)C1` [Compound 82, (2R,4R)-4-methoxy-N-(4-((3-(trifluoromethyl)phenyl)sulfonyl)benzyl)pyrrolidine-2-carboxamide], the IC50 came to 970 nM.

As for `O=C(NCc1ccccc1S(=O)(=O)c1cccc(C(F)(F)F)c1)c1ccnn1CC(F)(F)F` [Compound 48, 1-(2,2,2-trifluoroethyl)-N-(2-((3-(trifluoromethyl)phenyl)sulfonyl)benzyl)-1H-pyrazole-5-carboxamide], the IC50 worked out at 1650 nM.

Turning to `O=C(NCc1ccccc1S(=O)(=O)c1cccc(C(F)(F)F)c1)c1ccnc(C(F)(F)F)n1` [Compound 46, 2-(trifluoromethyl)-N-(2-((3-(trifluoromethyl)phenyl)sulfonyl)benzyl)pyrimidine-4-carboxamide], the IC50 was found to be 1740 nM.

Consider `COc1cc(C(=O)NCc2ccccc2S(=O)(=O)c2cccc(C(F)(F)F)c2)cc(Cl)n1` [Compound 49, 2-chloro-6-methoxy-N-(2-((3-(trifluoromethyl)phenyl)sulfonyl)benzyl)isonicotinamide], for which the IC50 is 1040 nM.

Consider `CN1CCCCC1C(=O)NCc1ccc(S(=O)(=O)c2cccc(C(F)(F)F)c2)cc1` (centres unmarked) [Compound 84, 1-methyl-N-(4-((3-(trifluoromethyl)phenyl)sulfonyl)benzyl)piperidine-2-carboxamide], for which the IC50 was 2280 nM.

Consider `O=C(NCc1ccc(S(=O)(=O)c2cccc(C(F)(F)F)c2)cn1)[C@H]1C[C@@H](O)CN1` [Compound 106, (2R,4R)-4-hydroxy-N-((5-((3-(trifluoromethyl)phenyl)sulfonyl)pyridin-2-yl)methyl)pyrrolidine-2-carboxamide], for which the IC50 amounted to 5850 nM.

`CS(=O)(=O)c1nc(C(F)(F)F)ccc1C(=O)NCc1cc(S(=O)(=O)c2cccc(C(F)(F)F)c2)ccn1` [Compound 110, 2-(methylsulfonyl)-6-(trifluoromethyl)-N-((4-((3-(trifluoromethyl)phenyl)sulfonyl)pyridin-2-yl)methyl)nicotinamide]: the IC50 came to 2210 nM.

In the case of `O=C(NCc1cc(S(=O)(=O)c2cccc(C(F)(F)F)c2)ccn1)c1ccnn1CC(F)(F)F` [Compound 112, 1-(2,2,2-trifluoroethyl)-N-((4-((3-(trifluoromethyl)phenyl)sulfonyl)pyridin-2-yl)methyl)-1H-pyrazole-5-carboxamide], the IC50 is 1030 nM.

`O=C(CCC(F)(F)F)NCc1ccc(S(=O)(=O)c2cccc(C(F)(F)F)c2)cn1` [Compound 105, 4,4,4-trifluoro-N-((5-((3-(trifluoromethyl)phenyl)sulfonyl)pyridin-2-yl)methyl)butanamide]: the IC50 stood at 2510 nM.

As to `O=C(NCc1ccc(S(=O)(=O)c2cccc(C(F)(F)F)c2)cn1)[C@H]1CCCN1` [Compound 108, (R)-N-((5-((3-(trifluoromethyl)phenyl)sulfonyl)pyridin-2-yl)methyl)pyrrolidine-2-carboxamide], the IC50 is 2600 nM.

Turning to `CO[C@H]1CN[C@@H](C(=O)NCc2ccc(S(=O)(=O)c3cccc(C(F)(F)F)c3)cc2)C1` [Compound 62, (2R,4R)-4-methoxy-N-(4-((3-(trifluoromethyl)phenyl)sulfonyl)benzyl)pyrrolidine-2-carboxamide], the IC50 stood at 620 nM.

As for `O=C(NCc1ccc(S(=O)(=O)c2cccc(C(F)(F)F)c2)cc1)[C@@H]1C[C@@H](F)CN1` [Compound 68, (2S,4R)-4-fluoro-N-(4-((3-(trifluoromethyl)phenyl)sulfonyl)benzyl)pyrrolidine-2-carboxamide], the IC50 came to 2300 nM.

Take `NC1(C(=O)NCc2ccc(S(=O)(=O)c3cccc(C(F)(F)F)c3)cc2)CCOCC1` [Compound 60, 4-amino-N-(4-((3-(trifluoromethyl)phenyl)sulfonyl)benzyl)tetrahydro-2H-pyran-4-carboxamide]: the IC50 turned out to be 4230 nM.

As to `O=C(NCc1ccc(S(=O)(=O)c2cccc(C(F)(F)F)c2)cc1)C1CCCN1` (stereo in doubt) [Compound 77, (R)-N-(4-((3-(trifluoromethyl)phenyl)sulfonyl)benzyl)pyrrolidine-2-carboxamide], the IC50 was 690 nM.

The assay is the same for the next values; noted with them: Table 5; Fluo-4 FLIPR; closed or inactivated state not stated; read-out: FLIPR data CaV2.2.
For `CNC(C)(C)C(=O)NCCC(C)(C)S(=O)(=O)c1cccc(C(F)(F)F)c1` [Compound 204, 2-methyl-N-(3-methyl-3-((3-(trifluoromethyl)phenyl)sulfonyl)butyl)-2-(methylamino)propanamide], the IC50 was 10200 nM.

Take `Cc1cncc(C(=O)NCC(C)(C)S(=O)(=O)c2cccc(C(F)(F)F)c2)c1` [Compound 173, 5-methyl-N-(2-methyl-2-((3-(trifluoromethyl)phenyl)sulfonyl)propyl)nicotinamide]: the IC50 was found to be 9060 nM.

Regarding `CC(C)(CCNC(=O)c1ccc(S(C)(=O)=O)cc1Cl)S(=O)(=O)c1cccc(C(F)(F)F)c1` [Compound 189, 2-chloro-N-(3-methyl-3-((3-(trifluoromethyl)phenyl)sulfonyl)butyl)-4-(methylsulfonyl)benzamide], the IC50 came out at 1360 nM.

As to `CC(C)(CNC(=O)c1ccc(F)cc1Cl)S(=O)(=O)c1cccc(C(F)(F)F)c1` [Compound 159, 2-chloro-4-fluoro-N-(2-methyl-2-((3-(trifluoromethyl)phenyl)sulfonyl)propyl)benzamide], the IC50 came to 1320 nM.

In the case of `CC(C)(CNC(=O)c1ccc(F)cc1)S(=O)(=O)c1cccc(C(F)(F)F)c1` [Compound 157, 4-fluoro-N-(2-methyl-2-((3-(trifluoromethyl)phenyl)sulfonyl)propyl)benzamide], the IC50 worked out at 5370 nM.

In the case of `CC(C)(CNC(=O)c1ccc(S(C)(=O)=O)cc1Cl)S(=O)(=O)c1cccc(C(F)(F)F)c1` [Compound 158, 2-chloro-N-(2-methyl-2-((3-(trifluoromethyl)phenyl)sulfonyl)propyl)-4-(methylsulfonyl)benzamide], the IC50 is 2920 nM.

As for `CC(C)(CCNC(=O)[C@@H](N)c1ccccc1)S(=O)(=O)c1cccc(C(F)(F)F)c1` [Compound 205, (S)-2-amino-N-(3-methyl-3-((3-(trifluoromethyl)phenyl)sulfonyl)butyl)-2-phenylacetamide], the IC50 came out at 1480 nM.

With `Cc1nc(C(F)(F)F)ccc1C(=O)NCC(C)(C)S(=O)(=O)c1cccc(C(F)(F)F)c1` [Compound 172, 2-methyl-N-(2-methyl-2-((3-(trifluoromethyl)phenyl)sulfonyl)propyl)-6-(trifluoromethyl)nicotinamide], the IC50 was determined as 2170 nM.

Regarding `CC(C)(CCNC(=O)C1(N)CC1)S(=O)(=O)c1cccc(C(F)(F)F)c1` [Compound 202, 1-amino-N-(3-methyl-3-((3-(trifluoromethyl)phenyl)sulfonyl)butyl)cyclopropanecarboxamide], the IC50 worked out at 10000 nM.

Turning to `CC(C)(CCNC(=O)[C@H](N)c1ccccc1)S(=O)(=O)c1cccc(C(F)(F)F)c1` [Compound 200], the IC50 is 1050 nM.

Regarding `CC(C)(C)Oc1ccc(CNC(=O)C(C)(C)S(=O)(=O)c2cccc(C(F)(F)F)c2)cc1` [Compound 144, N-(4-(tert-butoxy)benzyl)-2-methyl-2-((3-(trifluoromethyl)phenyl)sulfonyl)propanamide], the IC50 was found to be 360 nM.

Regarding `CC(C)(CCNC(=O)[C@H]1CCCC[C@H]1N)S(=O)(=O)c1cccc(C(F)(F)F)c1` [Compound 209, (1S,2R)-2-amino-N-(3-methyl-3-((3-(trifluoromethyl)phenyl)sulfonyl)butyl)cyclohexanecarboxamide], the IC50 was 1680 nM.

Consider `CC(C)(CCNC(=O)[C@@H]1C[C@@H](F)CN1)S(=O)(=O)c1cccc(C(F)(F)F)c1` [Compound 216, (2S,4R)-4-fluoro-N-(3-methyl-3-((3-(trifluoromethyl)phenyl)sulfonyl)butyl)pyrrolidine-2-carboxamide], for which the IC50 was 8930 nM.
